Source: US20230183292A1, “IMMUNOMODULATORS” (priority 2020, published 2023)
Starred links: 1 amine or outer side, 2 acyl side, 3 side chain; linkers in the order of their positions; H or OH if unused. Positions of bridges follow the written chain, without caps; N, C: chain ends. Non-standard residues stand in square brackets, D forms with d. Residues, ends and D or L forms follow the SMILES beside them. Groups on a side chain read outwards from the residue. *: point of attachment. X6 = C[C@H](CCC(=O)O)[C@H]1CC[C@H]2[C@@H]3C(=O)C[C@@H]4CC(NCC[C@H](N[*:1])C(=O)[*:2])CC[C@]4(C)[C@H]3CC(=O)[C@]12C; X3 = C[C@H](CCC(=O)O)[C@H]1CC[C@H]2[C@@H]3C(=O)C[C@@H]4CC(NC[C@H](N[*:1])C(=O)[*:2])CC[C@]4(C)[C@H]3CC(=O)[C@]12C; X9 = C[C@H](CCC(=O)O)[C@H]1CC[C@H]2[C@@H]3C(O)C[C@@H]4CC(NCC[C@H](N[*:1])C(=O)[*:2])CC[C@]4(C)[C@H]3CC(=O)[C@]12C; X8 = C[C@H](CCC(=O)O)[C@H]1CC[C@H]2[C@@H]3C(O)C[C@@H]4CC(NC[C@H](N[*:1])C(=O)[*:2])CC[C@]4(C)[C@H]3CC(=O)[C@]12C; X20 = CC(C)CCC[C@@H](C)[C@H]1CC[C@H]2[C@@H]3CC[C@H]4C[C@H](NC[C@H](N[*:1])C(=O)[*:2])CC[C@]4(C)[C@H]3CC[C@]12C; X25 = C[C@H](CCC(=O)O)[C@H]1CC[C@H]2[C@@H]3C(=O)C[C@@H]4CC(NC[C@H](N[*:1])C(=O)[*:2])CC[C@]4(C)[C@H]3CC[C@]12C; Cholyl = C[C@H](CCC(=O)*)[C@H]1CC[C@H]2[C@@H]3[C@H](O)C[C@@H]4C[C@H](O)CC[C@]4(C)[C@H]3C[C@H](O)[C@]12C; X27 = O=C(Cn1cc(C[C@H](N[*:1])C(=O)[*:2])c2ccccc21)Oc1ccccc1; Trp(1-CH2COOH) = N[C@@H](Cc1cn(CC(=O)O)c2ccccc12)C(=O)O; X28 = O=C(C[C@@H](Cc1ccc(O)cc1)C(=O)[*:1])C[*:2]; Hyp = O=C(O)[C@@H]1C[C@@H](O)CN1; NMeNle = CCCC[C@H](NC)C(=O)O; NMeA = CN[C@@H](C)C(=O)O; Dab = NCC[C@H](N)C(=O)O; Dap = NC[C@H](N)C(=O)O

These molecules were tested against T1, PD-1/PD-L1 (Homo sapiens, UniProt Q9NZQ7) (assay: PD-1/PD-L1 Homogenous Time-Resolved Fluorescence (HTRF) binding assay). Details: HTRF IC50, PD-L1-His 10 nM, PD-1-Ig 20 nM.
T1 construct: TVMV protease site (C); made in house; host or cells: HEK293T cells
T1 sequence (Q9NZQ7 18-239): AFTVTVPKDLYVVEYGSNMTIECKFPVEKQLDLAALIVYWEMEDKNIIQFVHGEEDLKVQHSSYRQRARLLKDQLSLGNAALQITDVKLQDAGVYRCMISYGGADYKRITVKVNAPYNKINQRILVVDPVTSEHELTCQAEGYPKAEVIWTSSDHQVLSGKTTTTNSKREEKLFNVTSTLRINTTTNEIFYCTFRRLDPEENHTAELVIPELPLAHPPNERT
Summary of the method: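 Inhibitors pre-incubated 15 min with PD-L1-His (10 nM final) in dPBS, 0.1% BSA, 0.05% Tween-20, then 15 min with PD-1-Ig (20 nM final). Eu-cryptate anti-Ig (1 nM) and APC anti-His (20 nM) added, 30 min equilibration; HTRF 665/620 nm ratio. Human ECD proteins from HEK293T.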
CCCC[C@H]1C(=O)N(C)[C@@H](CCCC)C(=O)N[C@@H](CC(C)C)C(=O)N[C@H](C(=O)NCC(N)=O)CSCC(=O)N[C@@H](Cc2ccc(O)cc2)C(=O)N(C)[C@@H](C)C(=O)N[C@@H](CC(N)=O)C(=O)N2CCC[C@H]2C(=O)N[C@@H](CNC(=O)CNC(=O)CC[C@@H](C)[C@H]2CC[C@H]3[C@@H]4[C@H](O)C[C@@H]5C[C@H](O)CC[C@]5(C)[C@H]4C[C@H](O)[C@]23C)C(=O)N[C@@H](CC(C)C)C(=O)N2C[C@H](O)C[C@H]2C(=O)N[C@@H](Cc2c[nH]c3ccccc23)C(=O)N[C@@H](CCNC(=O)CNC(=O)CC[C@@H](C)[C@H]2CC[C@H]3[C@@H]4[C@H](O)C[C@@H]5C[C@H](O)CC[C@]5(C)[C@H]4C[C@H](O)[C@]23C)C(=O)N[C@@H](Cc2cn(CC(=O)Oc3ccccc3)c3ccccc23)C(=O)N1C [Example 2037] ({CH2CO}-Y[NMeA]NP[Dap]([Gly-Cholyl])L[Hyp]W[Dab]([Gly-Cholyl])[X27][NMeNle][NMeNle]LCG-NH2; thioether N-14) was tested, and the IC50 was 420 nM.
Work on CCCC[C@H]1C(=O)N(C)[C@@H](CCCC)C(=O)N[C@@H](CC(C)C)C(=O)N[C@H](C(=O)NCC(N)=O)CSCC(=O)N[C@@H](Cc2ccc(O)cc2)C(=O)N(C)[C@@H](C)C(=O)N[C@@H](CC(N)=O)C(=O)N2CCC[C@H]2C(=O)N[C@@H](CN[C@@H]2CC[C@@]3(C)[C@@H](CC[C@@H]4[C@@H]3CC[C@]3(C)[C@@H]([C@H](C)CCCC(C)C)CC[C@@H]43)C2)C(=O)N[C@@H](CC(C)C)C(=O)N2C[C@H](O)C[C@H]2C(=O)N[C@@H](Cc2c[nH]c3ccccc23)C(=O)N[C@@H](CCN)C(=O)N[C@@H](Cc2cn(CC(=O)O)c3ccccc23)C(=O)N1C [Example 3009] ({CH2CO}-Y[NMeA]NP[X20]L[Hyp]W[Dab][Trp(1-CH2COOH)][NMeNle][NMeNle]LCG-NH2; thioether N-14) yielded an IC50 of 130 nM.

Same assay, conditions: PD-L1-His 10 nM, PD-1-Ig 20 nM; read-out: HTRF IC50
In the case of CCCC[C@H]1C(=O)N(C)[C@@H](CCCC)C(=O)N[C@@H](CC(C)C)C(=O)N[C@H](C(=O)NCC(N)=O)CSCC(=O)N[C@@H](Cc2ccc(O)cc2)C(=O)N(C)[C@@H](C)C(=O)N[C@@H](CC(N)=O)C(=O)N2CCC[C@H]2C(=O)N[C@@H](CNC2CC[C@@]3(C)[C@@H](C2)CC(O)[C@@H]2[C@@H]3CC(=O)[C@]3(C)[C@@H]([C@H](C)CCC(=O)O)CC[C@@H]23)C(=O)N[C@@H](CC(C)C)C(=O)N2C[C@H](O)C[C@H]2C(=O)N[C@@H](Cc2c[nH]c3ccccc23)C(=O)N[C@@H](CCNC2CC[C@@]3(C)[C@@H](C2)CC(O)[C@@H]2[C@@H]3CC(=O)[C@]3(C)[C@@H]([C@H](C)CCC(=O)O)CC[C@@H]23)C(=O)N[C@@H](Cc2cn(CC(=O)O)c3ccccc23)C(=O)N1C (some centres unmarked) [Example 3001] ({CH2CO}-Y[NMeA]NP[X8]L[Hyp]W[X9][Trp(1-CH2COOH)][NMeNle][NMeNle]LCG-NH2; thioether N-14), the IC50 is reported as 20 nM.
Molecule CCCC[C@H]1C(=O)N(C)[C@@H](CCCC)C(=O)N[C@@H](CC(C)C)C(=O)N[C@H](C(=O)NCC(N)=O)CSCC(=O)N[C@@H](Cc2ccc(O)cc2)C(=O)N(C)[C@@H](C)C(=O)N[C@@H](CC(N)=O)C(=O)N2CCC[C@H]2C(=O)N[C@@H](CNC2CC[C@@]3(C)[C@H](CC(=O)[C@@H]4[C@@H]3CC(=O)[C@]3(C)[C@@H]([C@H](C)CCC(=O)O)CC[C@@H]43)C2)C(=O)N[C@@H](CC(C)C)C(=O)N2C[C@H](O)C[C@H]2C(=O)N[C@@H](Cc2c[nH]c3ccccc23)C(=O)N[C@@H](CCNC2CC[C@@]3(C)[C@H](CC(=O)[C@@H]4[C@@H]3CC(=O)[C@]3(C)[C@@H]([C@H](C)CCC(=O)O)CC[C@@H]43)C2)C(=O)N[C@@H](Cc2cn(CC(=O)O)c3ccccc23)C(=O)N1C (some centres unmarked) [Example 3003] ({CH2CO}-Y[NMeA]NP[X3]L[Hyp]W[X6][Trp(1-CH2COOH)][NMeNle][NMeNle]LCG-NH2; thioether N-14) has an IC50 of 17 nM.
With CCCC[C@H]1C(=O)N(C)[C@@H](CCCC)C(=O)N[C@@H](CC(C)C)C(=O)N[C@H](C(=O)NCC(N)=O)CSCC(=O)C[C@@H](Cc2ccc(O)cc2)C(=O)N(C)[C@@H](C)C(=O)N[C@@H](CC(N)=O)C(=O)N2CCC[C@H]2C(=O)N[C@@H](CNC2CC[C@@]3(C)[C@H](CC(=O)[C@@H]4[C@@H]3CC[C@]3(C)[C@@H]([C@H](C)CCC(=O)O)CC[C@@H]43)C2)C(=O)N[C@@H](CC(C)C)C(=O)N2C[C@H](O)C[C@H]2C(=O)N[C@@H](Cc2c[nH]c3ccccc23)C(=O)N[C@@H](CCN)C(=O)N[C@@H](Cc2cn(CC(=O)O)c3ccccc23)C(=O)N1C (some centres unmarked) [Example 3004] ([NMeA]NP[X25]L[Hyp]W[Dab][Trp(1-CH2COOH)][NMeNle][NMeNle]LCG-NH2; linker N-13 via X28) the IC50 was 41 nM.
